Laboratory results as given in US20100093653A1, “Use of 1,6-Bis [3-(3-carboxymethylphenyl)-4-(2-alpha-D-mannopyranosyl-oxy)-phenyl] hexane for the preparation of cosmetic compositions” (Revotar Biopharmaceuticals AG, priority 2006, published 2010).

Experiments:
[1] = tested on: isolated perfused porcine fore limb; test: isolated perfused porcine fore limb transdermal penetration assay; type: in vitro ADME; conditions: microemulsion of example 6; 5 h application time; LC/MS
Protocol: By using the microemulsion as described in example 6 skin penetration studies of FORM 1 of 1,6-Bis [3-(3-carboxymethylphenyl)-4-(2-α-D-mannopyranosyloxy)-phenyl]hexane employing an isolated perfused porcine fore limb transdermal penetration assay using pig porcine is performed according to the methods known to the skilled person. The isolated perfused porcine fore limb is an assay system, which retains intact anatomy and skin, muscle, blood vessel and bone morphology. The organ is kept vitalized by perfusion with a blood-based perfusion medium for up to 6 h. This system allows monitoring of transdermal, resorption, penetration or permeation of pharmaceuticals and cosmetics. 3 application sites are choosen and surrounded by Leukosilk. On each of these areas 10 μl of microemulsion are applied with a pipette and distributed with the pipette tip.
For three additional application sites, the cotton pads of three Hill Top chambers in total, are soaked and saturated with microemulsion and applied to skin. After 5 h application time Hill Top chambers are removed and the unabsorbed microemulsion from the free sites is removed with a dry swab each. 20 Tesa strips are collected from each of the six applications sites. […] Swabs, strips, skin biopsys are analysed for content of FORM 1 of 1,6-Bis [3-(3-carboxymethylphenyl)-4-(2-α-D-mannopyranosyloxy)-phenyl]hexane with LC/MS. […]

[2] = tested on: photoageing of human skin; test: Protective effect against photoaging of human skin, solar simulated UV radiation, immunohistology of biopsies; type: in vivo; conditions: microemulsion of example 6, topical before 2 MED UV; buttock skin biopsies 24 hours after exposition; vehicle control skin showed it
Description: By using the microemulsion as described in example 6, the protective effect of FORM 1 of 1,6-Bis [3-(3-carboxymethylphenyl)-4-(2-α-D-mannopyranosyloxy)-phenyl]hexane (compound of formula (I)) against photoageing of human skin is investigated according to methods known to the skilled person. Two areas of buttock skin (each approximately 2×2 cm) of 10 healthy male white volunteers are exposed to erythematogenic doses (2 MED) of solar simulated UV radiation. Before radiation one area is topically treated with the formulation containing FORM 1 of compound of formula (I), the other with the formulation without FORM 1 of compound of formula (I) (vehicle control). 24 hours after exposition, biopsies are taken from both areas and as control from an area that is not exposed to radiation.

porcine skin = test: Franz diffusion cell penetration assay using porcine skin; type: in vitro ADME; conditions: microemulsion of example 6; 10.4 μl on 1000 μm porcine skin; 8 h; 37° C.; LC/MS
Protocol: By using the microemulsion as described in example 6, skin penetration studies of FORM 1 of 1,6-Bis [3-(3-carboxymethylphenyl)-4-(2-α-D-mannopyranosyloxy)-phenyl]hexane in employing a Franz diffusion cell penetration assay using porcine skin is performed according to the methods known to the skilled person. Porcine skin samples (6 in total, 2 from each animal, 3 female animals in total), 1000 μm thick, with the stratum corneum facing up are placed onto the lower part of a Franz diffusion cell. The cell is rinsed with medium tempered to 37° C. to prevent the skin from drying out and the system is equilibrated for 30 minutes. 10.4 μl of microemulsion as described in example 6 is applied to the dry upper side of the epidermis using a pipette and the microemulsion is distributed with an inoculation loop. Medium is collected every hour.
After 8 h the experiment is finished. The skin is punched out and the surface of the skin is swabed to removed excess microemulsion. The dry surface is stripped 20 times using Tesafilm. Swabs, strips, medium and skin samples are analysed for content of FORM 1 of 1,6-Bis [3-(3-carboxymethylphenyl)-4-(2-α-D-mannopyranosyloxy)-phenyl]hexane by LC/MS. On average 4% of the applied amount of FORM 1 of 1,6-Bis [3-(3-carboxymethylphenyl)-4-(2-α-D-mannopyranosyloxy)-phenyl]hexane in the microemulsion as described in example 6 penetrates into skin.

photoageing = test: Protective effect against photoageing, chronic solar-simulated UV radiation; type: in vivo, hairless mice; conditions: microemulsion of example 6, topical twice daily during 30 weeks UV-exposure; histology
Description: By using the microemulsion as described in example 6, the protective effect of FORM 1 of 1,6-Bis [3-(3-carboxymethylphenyl)-4-(2-α-D-mannopyranosyloxy)-phenyl]hexane (compound of formula (I)) against photoageing (hairless mice) is investigated according to methods known to the skilled person. Hairless mice are exposed to chronic solar-simulated UV radiation for 30 weeks.

wrinkles of crow's feet = test: Anti-wrinkle efficacy, crow's feet skin replicas with image analysis; type: in vivo, healthy subjects; conditions: microemulsion of example 6, twice a day for 28 days; treated vs untreated crow's feet; all subjects
Description: By using the microemulsion as described in example 6, the anti-wrinkle effect of FORM 1 of 1,6-Bis [3-(3-carboxymethylphenyl)-4-(2-α-D-mannopyranosyloxy)-phenyl]hexane (compound of formula (I)) is investigated according to methods known to the skilled person. 40 healthy subjects aged between 34 and 59 years, comprising 35 women and 5 men are selected. The formulation containing FORM 1 of the compound of formula (I), is applied twice a day, in the morning and in the evening, to one temporal zone of the face (crow's feet) for 28 days. The other zone remains untreated and serves as a control. An impression (skin replicas) is made from the control and treated zone at time 0 and after 28 days of treatment using SILFO impression material (Flexico, England).

[3] = tested on: skin elasticity of the back; test: Model of hormone induced skin ageing (menopause model, bilateral ovarectomy); type: in vivo, female hairless mice; conditions: microemulsion of example 6 onto the back twice daily for two months after ovary removal; vehicle control animals showed the reduction
Description: By using the microemulsion as described in example 6, the effect of FORM 1 of 1,6-Bis [3-(3-carboxymethylphenyl)-4-(2-α-D-mannopyranosyloxy)-phenyl]hexane (compound of formula (I)) on hormone induced skin ageing is investigated employing a menopause model according to methods known to the skilled person. Five-week old female hairless mice are subjected to bilateral ovarectomy, and used as an animal model of menopause. For two months from immediately after ovary extraction, the formulation containing FORM 1 of compound of formula (I) is applied onto the back twice daily. As a control, the formulation without FORM 1 of compound of formula (I) is applied in a similar protocol (vehicle control). […] Two months after ovary removal, skin elasticity of the back is measured using a Cutometer (COURAGE KHAZAKSA).

**Q.** How did the “applied amount that penetrates into skin (on average)” value [1] turn out when `O=C(O)Cc1cccc(-c2cc(CCCCCCc3ccc(O[C@H]4O[C@H](CO)[C@@H](O)[C@H](O)[C@@H]4O)c(-c4cccc(CC(=O)O)c4)c3)ccc2O[C@H]2O[C@H](CO)[C@@H](O)[C@H](O)[C@@H]2O)c1` [FORM 1 of compound of formula (I), 1,6-Bis [3-(3-carboxymethylphenyl)-4-(2-α-D-mannopyranosyloxy)-phenyl]hexane] was run?
**A.** The value was 5%.

**Q.** What about the “matrix-metallo-proteinase-1 (MMP-1)” value [2] of the same molecule?
**A.** Its value is “This is not the case”.

**Q.** What about the “matrix-metallo-proteinase-9 (MMP-9)” value [2] of the same molecule?
**A.** Its value is “This is not the case”.

**Q.** And the “strong infiltration of neutrophils” value [2]?
**A.** Its value is “This is not the case”.

**Q.** And the “applied amount that penetrates into skin (on average)” value (porcine skin)?
**A.** The value was 4%.

**Q.** What about the degraded dermal collagen (photoageing) of the same molecule?
**A.** The degraded dermal collagen was “protected significantly”.

**Q.** And the “deposition of glycosamisnoglycans in the lower dermis” value (photoageing)?
**A.** Its value is “protected significantly”.

**Q.** What about the “dermal mast cell number” value (photoageing) of the same molecule?
**A.** Its value is “protected significantly”.

**Q.** And the epidermal hyperplasia (photoageing)?
**A.** Its epidermal hyperplasia is “protected significantly”.

**Q.** What about the focal elastotic deposits (photoageing) of the same molecule?
**A.** The focal elastotic deposits was “protected significantly”.

**Q.** And the depth of wrinkles (wrinkles of crow's feet)?
**A.** The depth of wrinkles was “significantly reduces”.

**Q.** And the length of wrinkles (wrinkles of crow's feet)?
**A.** The length of wrinkles was “significantly reduces”.

**Q.** And the number of wrinkles (wrinkles of crow's feet)?
**A.** Its number of wrinkles is “significantly reduces”.

**Q.** What about the “significantly reduced skin elasticity (Cutometer) as compared to normal animals” value [3] of the same molecule?
**A.** The value was “This was not the case”.
